The values that follow come from PMC2824046 (Journal of the American Chemical Society, 2010).

Each structure is given as a SMILES string. pIC50: −log10 of the molar value.

The target in this experiment is protein phosphatase 2A (PP2A). The experiment in a line: PP2A inhibition assay. Format: biochemical.

For orientation: pIC50 means −log10 of the IC50, conventionally taken in molar units. A low value points to a large IC50.

As to `CCCCC/C=C/C=C\C=C/[C@H](O)[C@H](C)[C@H](C/C=C/[C@@H]1OC(=O)C=C[C@@H]1O)OP(=O)(O)O` [compound 2, phostriecin], the pIC50 was 6.14.
